# According to patent US20260265203A1, “CRYSTAL FORMS OF NITROGEN-CONTAINING SPIRO COMPOUND, PREPARATION METHOD THEREFOR AND USE THEREOF” (WUHAN CREATERNA SCIENCE AND TECHNOLOGY CO., LTD., priority 2023, published 2026):
# Like-named read-outs stand apart in the source and are kept apart here.
# Legend:
# [1] = Solid-state stability experiment under open conditions (HPLC purity, XRPD); format: physicochemical
# Description: (§1) The analysis and detection of samples were conducted using Shimadzu instruments. Both stability and solubility experiments were measured using the following methods.
# The purity was determined by HPLC.
# [2] = Solubility experiments in biosolvents and water; format: physicochemical
# Description: as §1
# The samples were fully stirred in SGF, FaSSIF, FeSSIF, and water for 0.5 hours, 2 hours, and 24 hours before being withdrawn. Their solubility was determined using HPLC, and the solid form in the suspensions was analyzed by XRPD for its crystal form.
# [3] = Determination of stability in biosolvents (HPLC purity); format: physicochemical
# Description: as §1
# After thorough stirring for 0.5 hours, 2 hours, and 24 hours, the mixed solutions were diluted to 10 mL, and their purity was determined using HPLC. […] Main impurities are indicated by the boxes in FIGS. 26 to 29.
# [4] = Hygroscopicity experiment (DVS); format: physicochemical
# Description: The sample was analyzed using Intrinsic DVS ([…] UK). The test sample, approximately 20~30 mg, was placed into the sample basket and suspended in the measurement chamber. The temperature in the test chamber was maintained at 25±1° C., while the relative humidity is increased from 0% to 90% and then decreased back to 0% at a rate of 10% per hour. Mass data was recorded every 20 seconds. Each gradient pause lasts 60 minutes.
# No change in crystal form was observed before and after the DVS measurement.
# [5] = Stability of crystal form I in DMSO under high-temperature conditions (LCMS purity); format: physicochemical
# Description: The LCMS curve was acquired using a Shimadzu instrument.
# The suspension was stirred at 50° C. for 24 hours and 48 hours, respectively. The solid and filtrate were then analyzed by LCMS.
# [6] = Water activity experiment (crystal form by XRPD); format: physicochemical
# Description: Organic solvent and water were mixed at molar ratios of 0.001:0.999, 0.2:0.8, 0.5:0.5, 0.8:0.2, and 0.999:0.001. […] The mixtures were stirred at 25° C. and 50° C. for 30 minutes, respectively, followed by filtration, and the filtrate was collected. […] The results were analyzed after stirring for 5 days and 11 days, respectively.
# [7] = Wet grinding crystal transformation experiment; format: physicochemical; conditions: manual grinding with water or ethanol for 10 minutes
# Description: 0.04 mL of water or ethanol was added, and manual grinding was performed for 2 min, 5 min, and 10 min, respectively. After each grinding period, XRPD was measured. If the solvent completely evaporates during the grinding process, an additional 0.04 mL of water or ethanol should be added to the mortar each time.
# [8] = Tablet compression experiment; format: physicochemical; conditions: compressed at 40 MPa
# [9] = Heating experiment of crystal form II; format: physicochemical
# Description: The resulting solids were subsequently characterized by XRPD, TGA, DSC, and ^1H NMR testings.
# alternative pathway = assay: Rabbit erythrocyte hemolysis assay (alternative pathway inhibition); format: cell-based, human; conditions: rabbit erythrocytes, NHP or NHS (matrix of the value not stated)
# Description: Normal Human Serum (NHS) (collected from healthy individuals), Normal Human Plasma (NHP) (Shanghai Yuduo), 96-well enzyme-linked immunosorbent assay (ELISA) plates (Jet Biofil), Japanese big-ear white rabbits (Wuhan WQJX Biotechnology), Alsever's solution (Procell), centrifuge (Thermo, PICO17), constant temperature shaker (Shanghai Fuma), decolorization shaker (Beijing Liuyi Biotechnology), cell counter (Invitrogen, Counter Countess II). GVB°, EGTA, MgCl2, NaOH, microplate reader, microplate thermostatic shaker, pipettes, etc., were the same as Experiment 1.
# 48% NHP: 100% NHP was diluted to a concentration of 48% with buffer.
# 26.4% NPS: 100% NHS was diluted to a concentration of 26.4% with buffer. […]
# In a 96-well microplate, for the experimental group 50 μL of 48% NHP or 26.4% NHS and 50 μL of compound solution were added; for the positive control group 50 μL of 48% NHP or 26.4% NHS and 50 μL of buffer containing 0.2% DMSO were added; for the blank control group 50 μL of 48% inactivated NHP or 26.4% inactivated NHS and 50 μL of buffer containing 0.2% DMSO were added; for the H2O group 100 μL of double-distilled water was added. […] The plate was centrifuged at 2000 g (3380 rpm) for 5 minutes, and 100 μL of supernatant was transferred to a new 96-well microplate, after which absorbance was measured at 415 nm. […]
# [10] = simulated gastric fluid, thermodynamic from solid, SGF
# [11] = thermodynamic from solid, FaSSIF
# [12] = thermodynamic from solid, FeSSIF
# [13] = thermodynamic from solid, Water
# [14] = 25° C., DMSO-H2O, aw 0.0003-0.999
# [15] = 50° C., DMSO-H2O, aw 0.0003-0.999
compound,measurement,setting,value
NCc1cccc(-c2cc(COc3ccccc3CC(=O)O)cc(N3CCC4(CC3)CC4)c2)c1 [crystal form I],HPLC main peak purity,[1]; 0 days (initial),99.33%
same,HPLC main peak purity,"[1]; open, 25° C./60% RH, 3 days",99.34%
same,HPLC main peak purity,"[1]; open, 25° C./60% RH, 7 days",98.95%
same,HPLC main peak purity,"[1]; open, 25° C./60% RH, 14 days",99.43%
same,HPLC main peak purity,"[1]; open, 25° C./90%(±5%) RH, 3 days",99.18%
same,HPLC main peak purity,"[1]; open, 25° C./90%(±5%) RH, 7 days",98.96%
same,HPLC main peak purity,"[1]; open, 25° C./90%(±5%) RH, 14 days",99.52%
same,HPLC main peak purity,"[1]; open, 40° C./75% RH, 3 days",99.30%
same,HPLC main peak purity,"[1]; open, 40° C./75% RH, 7 days",99.00%
same,HPLC main peak purity,"[1]; open, 40° C./75% RH, 14 days",99.48%
same,Crystal form (XRPD) after storage,"[1]; open, 60° C., 25° C./60% RH, 40° C./75% RH, 25° C./90(±5)% RH, 14 days",remained unchanged
same,HPLC main peak purity,"[1]; open, 60° C., 3 days",99.36%
same,HPLC main peak purity,"[1]; open, 60° C., 7 days",98.92%
same,HPLC main peak purity,"[1]; open, 60° C., 14 days",99.44%
same,solubility,"[2]; Water, 0.5 h",LOQ
same,Crystal form (XRPD) of suspended solid,"[2]; after stirring for 24 hours in FaSSIF, FeSSIF, and water",remained unchanged
same,solubility at 0.5 h,"[2]; simulated gastric fluid, thermodynamic from solid, SGF, 0.5 h",> 5000 µg/mL
same,solubility at 2 h,[2]; [10],> 5000 µg/mL
same,solubility at 24 h,[2]; [10],> 5000 µg/mL
same,solubility,"[2]; simulated gastric fluid, thermodynamic from solid, SGF, read-out: solubility in SGF",> 5000 µg/mL
same,solubility at 0.5 h,"[2]; thermodynamic from solid, FaSSIF, 0.5 h",54 µg/mL
same,solubility at 2 h,[2]; [11],66 µg/mL
same,solubility at 24 h,[2]; [11],75 µg/mL
same,solubility,"[2]; thermodynamic from solid, FaSSIF, FeSSIF, and water, read-out: solubility in FaSSIF, FeSSIF, and water",< 730 µg/mL
same,solubility at 0.5 h,"[2]; thermodynamic from solid, FeSSIF, 0.5 h",630 µg/mL
same,solubility at 2 h,[2]; [12],700 µg/mL
same,solubility at 24 h,[2]; [12],730 µg/mL
same,solubility at 2 h,[2]; [13],0.2 µg/mL
same,solubility at 24 h,[2]; [13],0.58 µg/mL
same,HPLC main peak purity,[3]; 0 h,99.33%
same,HPLC main peak purity,"[3]; FaSSIF, 0.5 h",98.97%
same,HPLC main peak purity,"[3]; FaSSIF, 2 h",98.91%
same,HPLC main peak purity,"[3]; FaSSIF, 24 h",98.86%
same,HPLC main peak purity,"[3]; FeSSIF, 0.5 h",99.50%
same,HPLC main peak purity,"[3]; FeSSIF, 2 h",99.34%
same,HPLC main peak purity,"[3]; FeSSIF, 24 h",98.04%
same,HPLC main peak purity,"[3]; FeSSIF, starting value of the decline as stated in the text",99.56%
same,HPLC main peak purity,"[3]; SGF, 0.5 h",99.13%
same,HPLC main peak purity,"[3]; SGF, 2 h",99.10%
same,HPLC main peak purity,"[3]; SGF, 24 h",99.08%
same,HPLC main peak purity,"[3]; Water, 0.5 h",99.06%
same,HPLC main peak purity,"[3]; Water, 2 h",98.79%
same,HPLC main peak purity,"[3]; Water, 24 h",98.77. %
same,Crystal form (XRPD) before and after the DVS measurement,[4],No change
same,weight gain (DVS),"[4]; 0-80% RH, 25° C.",0.55%
same,hygroscopicity,[4]; DVS,slight hygroscopicity
same,Purity by LCMS (254 nm),[5]; crystal form I before stirring,99.06%
same,Purity by LCMS (254 nm),"[5]; stirred in DMSO at 50° C. for 24 hours, filtrate",98.71%
same,Purity by LCMS (254 nm),"[5]; stirred in DMSO at 50° C. for 24 hours, solid",99.48%
same,Purity by LCMS (254 nm),"[5]; stirred in DMSO at 50° C. for 48 hours, filtrate",97.14%
same,Purity by LCMS (254 nm),"[5]; stirred in DMSO at 50° C. for 48 hours, solid",98.92%
same,Result (5 days): solid form,"[6]; 25° C., ACN-H2O, aw 0.90-1.00",Crystal form I
same,Result (11 days): solid form,"[6]; 25° C., ACN-H2O, aw 0.90-1.00",Crystal
same,Result (5 days): solid form,[6]; [14],Crystal form I
same,Result (11 days): solid form,[6]; [14],Crystal
same,Result (5 days): solid form,"[6]; 25° C., IPA-H2O, aw 0.003-0.99",Crystal form I
same,Result (11 days): solid form,"[6]; 25° C., IPA-H2O, aw 0.003-0.99",Crystal
same,Result (5 days): solid form,"[6]; 50° C., ACN-H2O, aw 0.01-1.00",Crystal form I
same,Result (11 days): solid form,"[6]; 50° C., ACN-H2O, aw 0.01-1.00",Crystal
same,Result (5 days): solid form,[6]; [15],Crystal form I
same,Result (11 days): solid form,[6]; [15],Crystal
same,Result (5 days): solid form,"[6]; 50° C., IPA-H2O, aw 0.003-0.99",Crystal form I
same,Result (11 days): solid form,"[6]; 50° C., IPA-H2O, aw 0.003-0.99",Crystal
same,Crystal form (XRPD) after wet grinding,[7],remained unchanged
same,Crystal form (XRPD) after tablet compression,[8],remained unchanged
NCc1cccc(-c2cc(COc3ccccc3CC(=O)O)cc(N3CCC4(CC3)CC4)c2)c1 [crystal form II],Crystal form (XRPD) after heating,[9]; heated to 140° C.,no change in the crystal form
same,Crystal form (XRPD) after heating,[9]; heated to 200° C.,crystal form I
"NCc1cccc(-c2cc(COc3ccccc3CC(=O)O)cc(N3CCC4(CC3)CC4)c2)c1 [Compound of formula A, 2-(2-((3′-(aminomethyl)-5-(6-azaspiro[2.5]octan-6-yl)-[1,1′-biphenyl]-3-yl)methoxy)phenyl)acetic Acid]",IC50,alternative pathway,41 nM
